Assays:
[1] = test system: CCRF-CEM; assay: Cytotoxicity against human CCRF-CEM cells assessed as cell viability at 50 uM after 24 hrs by MTT assay; assay type: functional; details: read-out: Activity
[2] = test system: CCRF-CEM; assay: Cytotoxicity against human CCRF-CEM cells assessed as cell viability at 10 uM after 24 hrs by MTT assay; assay type: functional; details: read-out: Activity
[3] = test system: CCRF-CEM; assay: Induction of apoptosis in human CCRF-CEM cells assessed as late apoptotic cells at 10 uM after 24 hrs by annexinV and propidium iodide staining based FACS analysis (reference value: 1.9 +/- 0.5%); assay type: functional
[4] = test system: MCF7; assay: Cytotoxicity against human MCF7 cells assessed as cell viability at 10 uM after 24 hrs by MTT assay; assay type: functional; details: MCF7, 24 h, read-out: Activity
[5] = test system: CCRF-CEM; assay: Cytotoxicity against human CCRF-CEM cells assessed as cell viability at 20 uM after 24 hrs by MTT assay; assay type: functional; details: read-out: Activity
[6] = test system: CCRF-CEM; assay: Induction of apoptosis in human CCRF-CEM cells assessed as late apoptotic cells at 50 uM after 24 hrs by annexinV and propidium iodide staining based FACS analysis (reference value: 1.9 +/- 0.5%); assay type: functional
[7] = test system: CCRF-CEM; assay: Induction of apoptosis in human CCRF-CEM cells assessed as viable cells at 10 uM after 24 hrs by annexinV and propidium iodide staining based FACS analysis (reference value: 96.4 +/- 1.2%); assay type: functional; details: read-out: Activity
[8] = test system: CCRF-CEM; assay: Induction of apoptosis in human CCRF-CEM cells assessed as viable cells at 50 uM after 24 hrs by annexinV and propidium iodide staining based FACS analysis (reference value: 96.4 +/- 1.2%); assay type: functional; details: read-out: Activity
[9] = test system: CCRF-CEM; assay: Induction of apoptosis in human CCRF-CEM cells assessed as early apoptotic cells at 10 uM after 24 hrs by annexinV and propidium iodide staining based FACS analysis (reference value: 1.5 +/- 0.8%); assay type: functional
[10] = test system: CCRF-CEM; assay: Induction of apoptosis in human CCRF-CEM cells assessed as early apoptotic cells at 50 uM after 24 hrs by annexinV and propidium iodide staining based FACS analysis (reference value: 1.5 +/- 0.8%); assay type: functional
[11] = test system: CCRF-CEM; assay: Induction of apoptosis in human CCRF-CEM cells assessed as necrotic cells at 10 uM after 24 hrs by annexinV and propidium iodide staining based FACS analysis (reference value: 0.1 +/- 0.1%); assay type: functional
[12] = test system: MCF7; assay: Cytotoxicity against human MCF7 cells assessed as cell viability at 20 uM after 24 hrs by MTT assay; assay type: functional; details: MCF7, 24 h, read-out: Activity
[13] = test system: MCF7; assay: Cytotoxicity against human MCF7 cells assessed as cell viability at 50 uM after 24 hrs by MTT assay; assay type: functional; details: MCF7, 24 h, read-out: Activity
[14] = test system: CCRF-CEM; assay: Induction of apoptosis in human CCRF-CEM cells assessed as necrotic cells at 50 uM after 24 hrs by annexinV and propidium iodide staining based FACS analysis (reference value: 0.1 +/- 0.1%); assay type: functional
[15] = biological target: CDK2/Cyclin A2 (Homo sapiens) (UniProt P24941+P20248); assay: Inhibition of CDK2/CycA2 (unknown origin) assessed as enzyme activity at 10 uM; assay type: protein-complex assay; design: scale not given: the % may be the effect or the level left
[16] = biological target: Homeodomain-interacting protein kinase 1 (Homo sapiens) (UniProt Q86Z02); assay: Inhibition of HIPK1 (unknown origin) assessed as enzyme activity at 10 uM; design: scale not given: the % may be the effect or the level left
Homeodomain-interacting protein kinase 1 (Homo sapiens), sequence (Q86Z02 whole entry, looked up, canonical isoform): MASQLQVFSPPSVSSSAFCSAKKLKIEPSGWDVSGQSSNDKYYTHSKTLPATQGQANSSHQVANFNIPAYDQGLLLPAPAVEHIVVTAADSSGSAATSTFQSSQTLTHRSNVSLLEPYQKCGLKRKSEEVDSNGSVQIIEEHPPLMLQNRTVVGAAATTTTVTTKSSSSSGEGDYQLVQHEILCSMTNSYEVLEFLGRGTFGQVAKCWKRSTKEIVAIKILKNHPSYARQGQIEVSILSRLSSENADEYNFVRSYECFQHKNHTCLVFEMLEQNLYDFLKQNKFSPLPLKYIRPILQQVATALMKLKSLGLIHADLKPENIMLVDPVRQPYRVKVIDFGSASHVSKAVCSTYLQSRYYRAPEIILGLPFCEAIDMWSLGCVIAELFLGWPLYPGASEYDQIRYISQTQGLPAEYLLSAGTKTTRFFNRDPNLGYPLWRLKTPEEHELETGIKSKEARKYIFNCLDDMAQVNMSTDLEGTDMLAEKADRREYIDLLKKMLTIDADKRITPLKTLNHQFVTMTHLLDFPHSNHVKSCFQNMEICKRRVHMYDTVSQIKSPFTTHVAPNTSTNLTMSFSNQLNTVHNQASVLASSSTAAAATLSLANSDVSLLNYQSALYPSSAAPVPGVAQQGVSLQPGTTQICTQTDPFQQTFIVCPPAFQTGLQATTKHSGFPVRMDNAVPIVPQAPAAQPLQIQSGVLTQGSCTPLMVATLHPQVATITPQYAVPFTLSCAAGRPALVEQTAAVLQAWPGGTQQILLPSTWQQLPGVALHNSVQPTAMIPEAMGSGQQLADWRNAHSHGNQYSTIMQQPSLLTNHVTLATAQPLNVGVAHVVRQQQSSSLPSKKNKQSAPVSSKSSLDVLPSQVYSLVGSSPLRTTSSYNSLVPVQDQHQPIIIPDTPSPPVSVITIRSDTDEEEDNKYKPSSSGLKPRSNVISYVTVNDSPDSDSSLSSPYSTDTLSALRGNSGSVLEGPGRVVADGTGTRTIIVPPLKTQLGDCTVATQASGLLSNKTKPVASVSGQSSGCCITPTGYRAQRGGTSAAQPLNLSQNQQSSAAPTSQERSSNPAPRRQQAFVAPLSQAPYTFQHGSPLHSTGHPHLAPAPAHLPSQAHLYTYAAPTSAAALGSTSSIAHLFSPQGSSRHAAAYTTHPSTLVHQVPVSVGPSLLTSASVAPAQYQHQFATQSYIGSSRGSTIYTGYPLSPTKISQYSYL

[17] = biological target: Casein kinase I isoform alpha (Homo sapiens) (UniProt P48729); assay: Inhibition of CK1-alpha1 (unknown origin) assessed as enzyme activity at 10 uM; design: scale not given: the % may be the effect or the level left
Casein kinase I isoform alpha (Homo sapiens), sequence (P48729 2-337 limits assumed): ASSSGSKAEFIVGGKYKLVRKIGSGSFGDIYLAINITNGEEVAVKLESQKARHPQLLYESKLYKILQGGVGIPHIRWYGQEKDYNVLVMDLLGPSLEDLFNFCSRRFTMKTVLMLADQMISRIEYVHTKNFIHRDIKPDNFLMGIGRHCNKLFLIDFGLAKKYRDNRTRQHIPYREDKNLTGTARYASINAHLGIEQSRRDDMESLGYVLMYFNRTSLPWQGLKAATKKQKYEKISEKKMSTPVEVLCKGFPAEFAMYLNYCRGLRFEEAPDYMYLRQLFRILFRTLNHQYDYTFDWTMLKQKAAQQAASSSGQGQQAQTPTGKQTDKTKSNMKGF

[18] = biological target: Dual specificity tyrosine-phosphorylation-regulated kinase 1A (Homo sapiens) (UniProt Q13627); assay: Inhibition of DYRK1A (unknown origin) assessed as enzyme activity at 10 uM; design: scale not given: the % may be the effect or the level left
[19] = biological target: T1, Serine/threonine-protein kinase D2 (Homo sapiens) (UniProt Q9BZL6); assay: Inhibition of PRKD2 (unknown origin) assessed as enzyme activity at 10 uM; design: scale not given: the % may be the effect or the level left
T1 sequence (whole entry): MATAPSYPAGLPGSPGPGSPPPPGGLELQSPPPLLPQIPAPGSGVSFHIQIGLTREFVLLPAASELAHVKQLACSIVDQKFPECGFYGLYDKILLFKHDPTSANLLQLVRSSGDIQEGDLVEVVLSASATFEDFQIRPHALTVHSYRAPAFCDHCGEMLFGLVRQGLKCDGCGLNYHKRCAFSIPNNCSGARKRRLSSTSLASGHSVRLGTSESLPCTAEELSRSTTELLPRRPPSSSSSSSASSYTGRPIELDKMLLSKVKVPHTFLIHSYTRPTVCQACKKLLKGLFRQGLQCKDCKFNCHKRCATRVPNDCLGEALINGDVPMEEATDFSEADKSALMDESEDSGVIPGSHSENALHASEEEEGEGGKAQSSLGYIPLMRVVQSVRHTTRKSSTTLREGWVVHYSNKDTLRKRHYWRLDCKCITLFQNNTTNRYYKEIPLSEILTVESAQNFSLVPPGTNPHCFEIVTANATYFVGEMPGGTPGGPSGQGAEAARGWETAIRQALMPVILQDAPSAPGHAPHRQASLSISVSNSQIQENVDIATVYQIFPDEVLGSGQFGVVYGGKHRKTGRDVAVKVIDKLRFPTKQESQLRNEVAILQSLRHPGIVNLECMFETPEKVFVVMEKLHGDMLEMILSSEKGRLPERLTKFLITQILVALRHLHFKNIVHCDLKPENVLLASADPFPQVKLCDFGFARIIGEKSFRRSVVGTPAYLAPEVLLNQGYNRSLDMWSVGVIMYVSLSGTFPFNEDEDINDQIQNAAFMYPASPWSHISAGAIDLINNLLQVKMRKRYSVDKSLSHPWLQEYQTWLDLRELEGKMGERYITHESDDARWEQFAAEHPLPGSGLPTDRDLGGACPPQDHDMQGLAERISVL

[20] = biological target: Mitogen-activated protein kinase 3 (Homo sapiens) (UniProt P27361); assay: Inhibition of Erk1 (unknown origin) assessed as enzyme activity at 10 uM; design: scale not given: the % may be the effect or the level left
Mitogen-activated protein kinase 3 (Homo sapiens), sequence (P27361 whole entry): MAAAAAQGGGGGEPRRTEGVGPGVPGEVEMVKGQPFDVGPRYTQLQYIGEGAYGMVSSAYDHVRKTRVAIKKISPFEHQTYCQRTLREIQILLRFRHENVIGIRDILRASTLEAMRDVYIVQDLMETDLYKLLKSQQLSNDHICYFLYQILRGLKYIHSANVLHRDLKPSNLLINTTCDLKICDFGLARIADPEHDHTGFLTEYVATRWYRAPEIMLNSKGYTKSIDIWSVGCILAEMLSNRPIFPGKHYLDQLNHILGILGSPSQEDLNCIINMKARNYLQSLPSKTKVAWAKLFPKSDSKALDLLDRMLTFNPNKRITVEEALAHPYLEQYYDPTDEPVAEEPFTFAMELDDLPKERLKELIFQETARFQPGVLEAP

[21] = biological target: Serine/threonine-protein kinase pim-1 (Homo sapiens) (UniProt P11309); assay: Inhibition of PIM1 (unknown origin) assessed as enzyme activity at 10 uM; design: scale not given: the % may be the effect or the level left
Serine/threonine-protein kinase pim-1 (Homo sapiens), sequence (P11309 whole entry, looked up): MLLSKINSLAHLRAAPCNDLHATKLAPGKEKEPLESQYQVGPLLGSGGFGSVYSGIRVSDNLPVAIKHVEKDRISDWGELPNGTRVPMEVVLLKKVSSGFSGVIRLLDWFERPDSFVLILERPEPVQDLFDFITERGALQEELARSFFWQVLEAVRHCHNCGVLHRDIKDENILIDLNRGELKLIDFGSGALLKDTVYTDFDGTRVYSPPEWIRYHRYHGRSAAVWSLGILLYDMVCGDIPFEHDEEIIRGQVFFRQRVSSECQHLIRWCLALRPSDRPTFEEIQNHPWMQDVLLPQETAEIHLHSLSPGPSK

[22] = species on record: Homo sapiens; assay: Inhibition of PKA (unknown origin) assessed as enzyme activity at 10 uM; design: scale not given: the % may be the effect or the level left

SMILES	viability at 50 µM [1] [%]	viability at 10 µM [2] [%]	Activity [3] [%]	viability at 10 µM [4] [%]	viability at 20 µM [5] [%]	Activity [6] [%]	viability at 10 µM [7] [%]	viability at 50 µM [8] [%]	Activity [9] [%]	Activity [10] [%]	Activity [11] [%]	viability at 20 µM [12] [%]	viability at 50 µM [13] [%]	Activity [14] [%]	further results
Cc1nc2c(Br)c(Br)c(Br)c(Br)c2n1CCC#N	2	84	7.1	85	51	20.1	82	6.2	10.6	69.6	0.2	74	15	0.9	–
N#CCCn1cnc2c(Br)c(Br)c(Br)c(Br)c21	2	80	3.9	81	44	17	90.6	5.4	5.4	77.2	0.1	72	23	0.4	–
N#CCn1cnc2c(Br)c(Br)c(Br)c(Br)c21	2	63	8.8	87	28	20.4	76.2	14.8	12.3	62.7	0.5	65	43	0.8	–
Cc1nc2c(Br)c(Br)c(Br)c(Br)c2n1CCCCC#N	55	92	2.9	109	61	29.3	93.5	30.2	3.6	39.9	0.1	110	42	0.6	–
Brc1c(Br)c(Br)c2[nH]cnc2c1Br	7	92	2.7	94	67	26	94.8	18.8	2.4	59.2	0.1	77	40	1	Activity [15]: 23%; Activity [16]: 9%; Activity [17]: 48%; Activity [18]: 3%; Activity [19]: 5%; Activity [20]: 78%; Activity [21]: 2%; Activity [22]: 75%
Cc1nc2c(Br)c(Br)c(Br)c(Br)c2n1CC#N	2	45	17.8	52	14	33.9	52	2.4	28.9	59.7	0.8	36	11	0.6	–
Cc1nc2c(Br)c(Br)c(Br)c(Br)c2n1CCCC#N	1	68	6.3	65	44	76.3	82.4	3.3	10.8	14.7	0.5	56	5	5.7	–
N#CCCCn1cnc2c(Br)c(Br)c(Br)c(Br)c21	2	85	3.8	89	70	33.3	92.8	21.5	3.3	41.1	0.1	70	16	2.3	–
N#CCCCCn1cnc2c(Br)c(Br)c(Br)c(Br)c21	1	98	3.1	102	70	44.9	93.6	14.3	3.2	39.9	0.1	99	18	0.9	–
